In patent US20230109717A1 (GAIA BioMedicine Inc., priority 2020, published 2023):
Entries after “also recorded” stand apart in the source; their conditions may differ.

Tests used:
highly active NK cells [1] = assay: Viability of freeze-thawed highly active NK cells (7-AAD staining, flow cytometry, FlowJo)
Description: The highly activated NK cells (1×10^5 cells/well) thawed under each condition were centrifuged on a 96-well plate (IWAKI, 4870-800SP), the supernatant was removed, and then a 7-amino-actinomycin D (7-AAD) solution diluted with PBS (Beckman Coulter, A 07704) was added to the cells to suspend them, and the suspension was incubated at room temperature (room temperature means 15 to 25° C., the same shall apply in the following experiments) for 20 minutes. The stained cells were measured by using a flow cytometer (BD LSR Fortessa, BD Biosciences).
The NK cells frozen for 48 hours or longer were thawed in a water bath at 37° C., and 1×10^5 cells were dispensed on a 96-well plate (IWAKI) immediately after the thawing. […] The cells dispensed immediately after thawing were centrifuged immediately after they were dispensed, and the cells of the other four groups were centrifuged after incubation of 3 hours, measurement was performed by the method for staining with 7-AAD described above, and the results were analyzed with the FlowJo software (FLOWJO, LLC) to calculate viable cell rates.
The NK cells frozen for 48 hours or longer were thawed at 37° C. in a water bath, and then 1×10^5 of the cells were dispensed on a 96-well plate immediately after the thawing. […] The cells dispensed immediately after thawing were centrifuged immediately after they were dispensed, and the cells of the other four groups were centrifuged after incubation of 3 hours, measurement was performed by the method for staining with 7-AAD described above, and the results were analyzed with the FlowJo software (FLOWJO, LLC) to calculate viable cell rates.
Then, measurement was performed by the method for staining with 7-AAD described above, and the results were analyzed with the FlowJo software. […] Then, measurement was performed by the method for staining with 7-AAD described above, and the results were analyzed with the FlowJo software. (8-3) The experiment was performed in the same manner as in (8-1), but (1) PBS, (2) Plasma-Lyte A, (3) Plasma-Lyte A containing 27.7 mEq/L of lactic acid (Nacalai Tesque, 20006-62), (4) Plasma-Lyte A containing 48.84 mg/L of MgSO4.7H2O (Nacalai Tesque, 21002-85), (5) Lactoringer, (6) Veen-F (Fuso Pharma), (7) Solita-T1 (AY Pharmaceuticals), (8) Solita-T3 (AY Pharmaceuticals), (9) 5% glucose injection solution (Terumo), and (10) RPMI medium were used as the solvents for dilution of thawed cells, and the cells were incubated at 37° C. for 3 hours. In the case of (3), lactic acid was added at the same concentration as the lactate concentration in Lactoringer, and neutrality of the solution was confirmed with litmus test paper. In the case of (4), MgSO4 was added at the same concentration as the MgSO4 concentration in HBSS. Measurement was then performed by the method for staining with 7-AAD described above, and the results were analyzed with the FlowJo software. (8-4) The experiment was performed in the same manner as in (8-2), but the cells were treated by using (1) PBS, (2) Plasma-Lyte A, (3) saline (OTSUKA NORMAL SALINE, Otsuka Pharmaceutical), (4) Bicanate (Otsuka Pharmaceutical), and (5) Solacet F (Terumo) as the solvents for dilution of thawed cells. Measurement was then performed by the method for staining with 7-AAD described above, and the results were analyzed with the FlowJo software. […] Immediately after completely thawed, the cells were diluted 10-fold in (1) Plasma-Lyte A, (2) saline, (3) RPMI 1640 medium, (4) Lactoringer, (5) 0.423 mM CaCl2 prepared in Plasma-Lyte A, and (6) 1.36 mM CaCl2, and left to stand at 37° C. for 3 hours. The CaCl2 concentration of (5) was the same as that in the RPMI 1640 medium, and the CaCl2 concentration of (6) was the same as that in Lactoringer. Measurement was then performed by the method for staining with 7-AAD described above, and the results were analyzed with the FlowJo software.

highly active NK cells [2] = assay: Viable cell count and recovery rate of highly active NK cells after thawing, based on cell number at freezing; parameters: species or system human
Description: After the thawing, all the dilution and incubation operations were performed on a low-absorption 6-well plate.
The cells of the groups diluted in the media were incubated overnight at 37° C. under 5% CO2, and then the numbers of viable cells were counted. The experimental conditions are summarized below.
The NK cells obtained by the collection method 1 were suspended in PBS, and incubated at room temperature for 1 hour. The NK cells obtained by the collection method 2 were suspended in (1) the KBM501 medium, (2) KBM501 medium containing 30 μM 4-phenylbutyric acid, (3) KBM501 medium containing 30 μM tauroursodeoxycholic acid dihydrate (TUDCA, Tokyo Kasei Kogyo, T1567), and (4) KBM501 medium containing 30 μM 4-phenylbutyric acid and 30 μM TUDCA, and incubated at 37° C. for 2 hours under 5% CO2. […] After 1 hour, the cells were gently suspended, and number of viable cells was counted. After another 5-fold dilution in the KBM501 medium and incubation at 37° C. for 2 hours under 5% CO2, number of viable cells was counted, and the recovery rate based on the number of cells at the time of freezing was calculated.
(§1) After 1 and 3 hours, the cells were gently suspended, and viable cells were counted. In addition, after 1 hour, the cells were diluted 5-fold in the KBM501 medium, and incubated at 37° C. for 2 hours under 5% CO2, and viable cell were counted. Recovery rate of viable cells after the thawing based on the cell number at the time of freezing was calculated using the number of viable cells at each time point.
as §1, with “on the basis of” for “using”, “point after the thawing.” for “point.”

K562 cells = assay: Cytotoxic activity rate (% Lysis) of freeze-thawed highly active NK cells against K562 cells; type: cell-based; details: Exmp. 7, collect. method 2, pretreatment KBM + 2.4% DMSO 2 h
Description: Cytotoxic activity can be expressed as the percentage of target cells killed by effector cells, and is calculated in accordance with the following equation.
(Cell death observed in co-culture with effector cells−Spontaneous cell death (negative control))/(Maximum cell death (positive control)−Spontaneous cell death (negative control))×100
For the measurement of cytotoxic activity, a group of the K562 cells reacted with the NK cells, a group consisting solely of the K562 cells as a negative control, and a group of the K562 cells fixed with 10% formalin as a positive control were prepared.
After incubation for the times indicated for the groups, the cells were collected, and prepared at a density of 2×10^6 cells/mL in 10% FBS/RPMI 1640.
The K562 cells (human chronic myelogenous leukemia cell line) were suspended in serum-free RPMI 1640 medium, stained with PKH26 Red Fluorescent Cell Linker Kit (Sigma, PKH26GL-1KT), and finally prepared at a density of 2×10^6 cells/mL in 10% FBS/RPMI 1640.
The NK cells and K562 cells were added and mixed in wells of 96-well plate (IWAKI, 4870-800SP) at a cell ratio of 1:1, and allowed to react at 37° C. for 2 hours under 5% CO2. After the reaction, the plate was centrifuged (500×g, 5 minutes), and the supernatant was removed. Then, a 7-AAD solution diluted with PBS was added to the cells to suspend the cells, and the suspension was incubated at room temperature for 20 minutes. […]
For the measurement of cytotoxic activity, a group of the NK cells reacted with the K562 cells, a group solely consisting of the K562 cells as a negative control, and a group of the K562 cells fixed with 10% formalin as a positive control were prepared.
The cells were thawed and diluted by the method described above, and a necessary amount of the cells were taken on the basis of the number of viable cells at the time of freezing, and then prepared at a density of 2×10^6 cells/mL in 10% FBS/RPMI 1640.
The K562 cells were suspended in serum-free RPMI 1640 medium, stained with PKH26 Red Fluorescent Cell Linker Kit, and then prepared at a density of 2×10^6 cells/mL in 10% FBS/RPMI 1640. […]
For the measurement of cytotoxic activity, a group of NK cells reacted with K562 cells, a group of K562 cells only as a negative control, and a group of K562 cells fixed with 10% formalin as a positive control were prepared. […]
(9-2) Cytotoxic activity was measured in the same manner as described in the section of (9-1), but after thawing and dilution, the cells were left to stand for up to 6 hours, and cytotoxic activity was measured by the method described in the section b) mentioned above at the time points of 2, 5, and 6 hours. In detail, the NK cells and K562 cells were added to each well of a 96-well plate (IWAKI, 4870-800SP) at a cell ratio of 1:1, mixed, and then allowed to react at 37° C. for 2 hours under 5% CO2.

highly active NK cells [3] = assay: Optical microscope observation of highly active NK cells after freeze-thawing; type: cell-based, human; details: additive in KBM501 medium used for 10-fold dilution after thawing; 37° C. 3 hours (or 4° C. 3 hours then 37° C. 3 hours); cells washed with PBS
Description: The NK cells frozen for 48 hours or longer were thawed at 37° C. in a water bath, then diluted 10-fold in the solvents mentioned below, left to stand at the temperatures for the times mentioned below, then observed and photographed under an optical microscope.
<1> Diluted in the KBM501 medium, and left to stand at 37° C. for 3 hours. <2> Diluted in the KBM501 medium containing Z-Vad, and left to stand at 37° C. for 3 hours. <3> Diluted in the KBM501 medium containing methylprednisolone, and left to stand at 37° C. for 3 hours. <4> Diluted in the KBM501 medium containing dexamethasone, and left to stand at 37° C. for 3 hours. <5> Diluted in the KBM501 medium, and left to stand at 4° C. for 3 hours. <6> Diluted in the KBM501 medium containing methylprednisolone, and left to stand at 4° C. for 3 hours, and then at 37° C. for 3 hours. <7> Diluted in the KBM501 medium containing dexamethasone, and left to stand at 4° C. for 3 hours, and then at 37° C. for 3 hours.

## O=C(O)CCCc1ccccc1 [4-PBA, 4-phenylbutyric acid]
Highly active NK cells [1]; Exmp. 4, collect. method 1, pretreatment KBM + 10 μM 4-PBA 2 h, thawing PlasmaLyte + IL-2 1 h, then KBM o/n
  Viability: A (“A” means 70% or higher)
Highly active NK cells [2]; pretreatment 2 hours with KBM501 medium supplemented with 30 μM additive before freezing, Example 5
  Recovery rate after the thawing: improved
Highly active NK cells [2]; treatment with KBM501 supplemented with 10 or 100 μM additive before freezing, viable cells counted after overnight incubation, Example 4
  Viability after the thawing: improved

## C[S+](C)[O-] [DMSO, dimethyl sulfoxide]
K562 cells; thawing PlasmaLyte + IL-2, R.T. 1 h
  Activity: A (A means 70% or higher)
K562 cells; thawing PlasmaLyte + IL-2, R.T. 1 h, then KBM 2 h
  Activity: A (A means 70% or higher)
K562 cells; thawing PlasmaLyte + IL-2, R.T. 3 h
  Activity: A (A means 70% or higher)
K562 cells; thawing PlasmaLyte R.T. 1 h
  Activity: A (A means 70% or higher)
K562 cells; thawing PlasmaLyte R.T. 1 h, then KBM 2 h
  Activity: A (A means 70% or higher)
K562 cells; thawing PlasmaLyte R.T. 3 h
  Activity: A (A means 70% or higher)

## [Cl-].[Cl-].[Mg+2] [MgCl2, Magnesium chloride]
Highly active NK cells [1]; 100 mM as solution used at thawing, cells washed with KBM501 medium, conditions (12-4) and (12-5)
  Viability: degraded

## O=C([O-])[C@H](O)[C@@H](O)[C@H](O)[C@H](O)CO.[Na+] [gluconic acid, sodium gluconate]
Highly active NK cells [1]; added to KBM501 medium used for dilution at thawing (5.02 mg/mL sodium gluconate), 37° C. 3 hours, Example 1
  Viability of frozen highly active NK cells after thawing: did not show improvement; also recorded: no improvement

## Z-VAD
Highly active NK cells [3]
  Viability of highly active NK cells after freeze-thawing (optical micrographs): not improved
